These results are taken from ChEMBL document CHEMBL1201862, “PubChem BioAssay data set” (2004).

Calls of active or inactive are those of the source.

In assay [1] the target is T1, Aminopeptidase N (Plasmodium falciparum FcB1/Columbia, UniProt O96935).
T1 sequence (O96935 whole entry): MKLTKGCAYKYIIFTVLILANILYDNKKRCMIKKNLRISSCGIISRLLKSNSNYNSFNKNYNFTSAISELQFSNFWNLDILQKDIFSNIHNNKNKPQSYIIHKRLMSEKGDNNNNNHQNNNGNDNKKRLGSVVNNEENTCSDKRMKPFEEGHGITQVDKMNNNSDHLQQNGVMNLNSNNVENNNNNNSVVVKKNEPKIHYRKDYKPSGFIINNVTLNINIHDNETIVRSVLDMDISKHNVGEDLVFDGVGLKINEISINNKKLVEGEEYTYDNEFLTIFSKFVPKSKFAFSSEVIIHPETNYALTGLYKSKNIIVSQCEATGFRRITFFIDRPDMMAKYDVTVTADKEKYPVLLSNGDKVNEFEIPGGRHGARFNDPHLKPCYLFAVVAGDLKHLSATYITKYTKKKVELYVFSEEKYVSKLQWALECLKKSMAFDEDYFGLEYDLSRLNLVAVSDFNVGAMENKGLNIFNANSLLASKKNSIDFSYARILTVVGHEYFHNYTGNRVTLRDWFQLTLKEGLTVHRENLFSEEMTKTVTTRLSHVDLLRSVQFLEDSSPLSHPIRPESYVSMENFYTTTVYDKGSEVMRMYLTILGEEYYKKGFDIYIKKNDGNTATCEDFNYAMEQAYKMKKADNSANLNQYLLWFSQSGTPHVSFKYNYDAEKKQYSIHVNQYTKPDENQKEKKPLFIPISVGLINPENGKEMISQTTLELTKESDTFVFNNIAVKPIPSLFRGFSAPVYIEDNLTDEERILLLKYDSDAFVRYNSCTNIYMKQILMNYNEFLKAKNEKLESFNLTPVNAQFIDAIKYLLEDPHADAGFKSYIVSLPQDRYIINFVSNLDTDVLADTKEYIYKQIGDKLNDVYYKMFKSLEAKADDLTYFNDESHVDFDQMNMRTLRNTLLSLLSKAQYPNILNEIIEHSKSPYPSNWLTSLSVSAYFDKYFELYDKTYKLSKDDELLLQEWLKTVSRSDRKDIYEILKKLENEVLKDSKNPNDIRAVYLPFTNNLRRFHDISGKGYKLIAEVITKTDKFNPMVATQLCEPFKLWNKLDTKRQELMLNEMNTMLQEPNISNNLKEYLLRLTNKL
Put plainly: malaria alanyl aminopeptidase activity blockers – biochemical, fluorogenic H-Leu-NHMec substrate, 1536-well (AID 1445). Also on record: species or system Plasmodium falciparum 3D7, 3D7.

Assay [2] in a line: cells. The class given is functional.
Assay [3] deals with T2, Fatty acid synthase (Homo sapiens, UniProt P49327). Put plainly: inhibition of human FAS-TE enzyme activity – biochemical, kinetic fluorescence intensity, dose response (AID 624326).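 Further: rate of fluorescence rise from hydrolysis of a fluorogenic O-methyl fluorescein ester substrate.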 Type of assay: functional.
T2 sequence (P49327 whole entry): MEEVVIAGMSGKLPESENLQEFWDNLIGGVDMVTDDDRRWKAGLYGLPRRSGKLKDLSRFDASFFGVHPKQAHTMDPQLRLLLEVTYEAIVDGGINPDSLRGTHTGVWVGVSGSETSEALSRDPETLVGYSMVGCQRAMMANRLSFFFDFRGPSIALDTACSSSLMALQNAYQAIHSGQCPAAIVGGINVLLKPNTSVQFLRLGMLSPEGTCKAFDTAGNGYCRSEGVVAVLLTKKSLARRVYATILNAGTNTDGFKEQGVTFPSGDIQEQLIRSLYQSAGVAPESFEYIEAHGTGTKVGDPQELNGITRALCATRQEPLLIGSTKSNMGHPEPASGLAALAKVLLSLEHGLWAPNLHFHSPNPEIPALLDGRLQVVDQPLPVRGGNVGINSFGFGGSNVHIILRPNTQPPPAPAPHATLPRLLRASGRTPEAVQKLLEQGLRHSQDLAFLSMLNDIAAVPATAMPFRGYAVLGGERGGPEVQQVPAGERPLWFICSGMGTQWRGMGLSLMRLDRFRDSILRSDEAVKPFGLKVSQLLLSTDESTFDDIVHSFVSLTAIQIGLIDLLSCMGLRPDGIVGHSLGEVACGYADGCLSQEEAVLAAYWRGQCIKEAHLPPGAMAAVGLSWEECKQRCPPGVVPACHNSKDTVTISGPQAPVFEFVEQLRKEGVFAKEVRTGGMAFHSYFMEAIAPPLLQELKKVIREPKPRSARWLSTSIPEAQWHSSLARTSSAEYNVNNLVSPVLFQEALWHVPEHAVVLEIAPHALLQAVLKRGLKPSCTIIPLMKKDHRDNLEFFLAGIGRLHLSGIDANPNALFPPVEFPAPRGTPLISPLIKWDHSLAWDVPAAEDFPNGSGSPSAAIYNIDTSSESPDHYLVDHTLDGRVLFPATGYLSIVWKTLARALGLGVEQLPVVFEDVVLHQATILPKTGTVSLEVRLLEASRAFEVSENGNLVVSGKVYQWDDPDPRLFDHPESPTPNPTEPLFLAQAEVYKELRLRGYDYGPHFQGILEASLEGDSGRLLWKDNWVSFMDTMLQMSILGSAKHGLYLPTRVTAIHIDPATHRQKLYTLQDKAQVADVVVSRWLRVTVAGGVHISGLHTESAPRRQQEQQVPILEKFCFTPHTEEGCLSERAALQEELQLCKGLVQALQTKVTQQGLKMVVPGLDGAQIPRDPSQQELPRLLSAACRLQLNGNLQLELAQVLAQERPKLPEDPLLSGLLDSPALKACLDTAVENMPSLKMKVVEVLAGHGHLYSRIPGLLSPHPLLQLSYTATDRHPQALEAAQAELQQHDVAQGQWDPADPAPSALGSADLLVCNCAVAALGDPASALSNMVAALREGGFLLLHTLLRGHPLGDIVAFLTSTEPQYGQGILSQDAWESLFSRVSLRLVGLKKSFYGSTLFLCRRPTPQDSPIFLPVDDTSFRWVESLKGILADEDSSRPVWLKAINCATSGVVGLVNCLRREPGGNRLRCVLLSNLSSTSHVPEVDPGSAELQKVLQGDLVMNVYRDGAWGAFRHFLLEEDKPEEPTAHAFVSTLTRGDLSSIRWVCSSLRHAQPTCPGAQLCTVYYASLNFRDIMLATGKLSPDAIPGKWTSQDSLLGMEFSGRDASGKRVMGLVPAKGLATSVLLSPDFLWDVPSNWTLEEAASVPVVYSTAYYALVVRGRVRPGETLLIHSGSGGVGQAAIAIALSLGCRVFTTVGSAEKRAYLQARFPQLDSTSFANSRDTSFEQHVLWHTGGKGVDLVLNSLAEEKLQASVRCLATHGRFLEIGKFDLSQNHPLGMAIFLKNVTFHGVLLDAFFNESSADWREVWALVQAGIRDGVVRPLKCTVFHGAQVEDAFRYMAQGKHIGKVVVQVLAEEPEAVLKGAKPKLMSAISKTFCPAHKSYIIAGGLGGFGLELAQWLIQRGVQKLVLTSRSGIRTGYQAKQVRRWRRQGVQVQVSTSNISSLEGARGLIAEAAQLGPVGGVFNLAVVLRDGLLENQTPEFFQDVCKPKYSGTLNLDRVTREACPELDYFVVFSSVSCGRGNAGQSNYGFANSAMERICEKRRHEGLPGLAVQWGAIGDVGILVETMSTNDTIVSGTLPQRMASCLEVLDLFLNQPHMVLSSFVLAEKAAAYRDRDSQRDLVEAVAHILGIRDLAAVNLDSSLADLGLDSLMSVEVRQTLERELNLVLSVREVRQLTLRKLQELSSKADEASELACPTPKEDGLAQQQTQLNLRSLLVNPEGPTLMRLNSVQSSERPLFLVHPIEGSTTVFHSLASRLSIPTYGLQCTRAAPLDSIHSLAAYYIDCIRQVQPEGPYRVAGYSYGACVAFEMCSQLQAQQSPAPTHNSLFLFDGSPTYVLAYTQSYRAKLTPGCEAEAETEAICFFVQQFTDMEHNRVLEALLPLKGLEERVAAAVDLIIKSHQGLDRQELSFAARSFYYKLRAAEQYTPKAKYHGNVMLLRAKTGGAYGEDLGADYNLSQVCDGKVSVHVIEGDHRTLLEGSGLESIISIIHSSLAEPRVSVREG
Assay [4] deals with T2, Fatty acid synthase. Description: inhibition of human FAS-TE enzyme activity – biochemical, endpoint fluorescence intensity, uHTS hits, dose response (AID 624327).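 Further: fluorescence from hydrolysis of an O-methyl fluorescein acyl ester substrate by the enzyme.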 The class given is functional.
Assay [5] deals with T3, Corticotropin-releasing factor receptor 2/Corticotropin-releasing factor-binding protein (Homo sapiens, UniProt P24387+Q13324).
T3 sequence (Q13324 whole entry): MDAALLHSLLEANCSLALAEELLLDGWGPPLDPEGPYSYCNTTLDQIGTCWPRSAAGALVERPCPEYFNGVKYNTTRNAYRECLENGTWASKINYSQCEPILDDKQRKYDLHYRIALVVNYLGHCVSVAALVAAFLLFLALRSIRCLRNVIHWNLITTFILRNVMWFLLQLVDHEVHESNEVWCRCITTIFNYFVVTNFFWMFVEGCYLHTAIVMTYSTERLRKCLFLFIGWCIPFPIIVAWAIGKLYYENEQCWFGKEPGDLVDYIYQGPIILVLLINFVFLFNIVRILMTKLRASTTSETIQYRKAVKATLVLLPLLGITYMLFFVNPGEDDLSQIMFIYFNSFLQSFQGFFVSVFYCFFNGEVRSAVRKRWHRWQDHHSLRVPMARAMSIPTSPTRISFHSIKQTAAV
T3 sequence (P24387 whole entry): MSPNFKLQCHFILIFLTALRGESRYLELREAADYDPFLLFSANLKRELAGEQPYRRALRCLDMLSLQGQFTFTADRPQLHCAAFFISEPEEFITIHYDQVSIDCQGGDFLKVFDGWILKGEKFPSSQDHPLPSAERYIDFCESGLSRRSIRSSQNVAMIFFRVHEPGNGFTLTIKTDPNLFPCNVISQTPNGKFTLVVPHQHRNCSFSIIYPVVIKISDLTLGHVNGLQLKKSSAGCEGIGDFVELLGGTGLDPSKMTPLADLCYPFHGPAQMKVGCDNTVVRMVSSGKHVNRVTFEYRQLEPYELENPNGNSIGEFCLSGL
Put plainly: activators of CRF receptor 2 with binding protein – uHTS hits, confirmation (AID 602473). The class given is functional. The following applies: read-out: EC50_Mean.

Assay [6] concerns the target T4, Microphthalmia-associated transcription factor (Homo sapiens, UniProt O75030).
T4 sequence (O75030 whole entry): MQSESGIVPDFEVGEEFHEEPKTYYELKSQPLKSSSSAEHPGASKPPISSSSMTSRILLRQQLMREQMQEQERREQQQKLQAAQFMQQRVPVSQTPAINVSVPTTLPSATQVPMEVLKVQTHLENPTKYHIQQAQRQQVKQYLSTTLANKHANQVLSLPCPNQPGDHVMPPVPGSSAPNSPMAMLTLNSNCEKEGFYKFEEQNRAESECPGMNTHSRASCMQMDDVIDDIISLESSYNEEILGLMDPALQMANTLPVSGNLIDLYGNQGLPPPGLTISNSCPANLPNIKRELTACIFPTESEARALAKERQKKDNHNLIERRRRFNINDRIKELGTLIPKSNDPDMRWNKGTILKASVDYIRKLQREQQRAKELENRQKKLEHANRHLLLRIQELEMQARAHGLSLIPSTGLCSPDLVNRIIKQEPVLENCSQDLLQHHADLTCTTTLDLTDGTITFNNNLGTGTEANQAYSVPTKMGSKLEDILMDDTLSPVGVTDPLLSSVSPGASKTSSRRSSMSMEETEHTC
Put plainly: reducers of TRPM1 reporter luminescence, concentration series – cell-based, SK-MEL-5, cherry-picked, set 3, MITF inhibitor project, dose response (AID 493073).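 Further: SK-MEL-5 melanoma cells with luciferase driven by the MITF target TRPM1 promoter.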 Type of assay: functional.

The target of assay [7] is Large T antigen (Simian virus 40, UniProt P03070). The class given is functional, Betapolyomavirus macacae.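 Further: Confirmatory-stage PubChem screen for compounds that inhibit SV40 T antigen.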
Sequence of Large T antigen (P03070 whole entry): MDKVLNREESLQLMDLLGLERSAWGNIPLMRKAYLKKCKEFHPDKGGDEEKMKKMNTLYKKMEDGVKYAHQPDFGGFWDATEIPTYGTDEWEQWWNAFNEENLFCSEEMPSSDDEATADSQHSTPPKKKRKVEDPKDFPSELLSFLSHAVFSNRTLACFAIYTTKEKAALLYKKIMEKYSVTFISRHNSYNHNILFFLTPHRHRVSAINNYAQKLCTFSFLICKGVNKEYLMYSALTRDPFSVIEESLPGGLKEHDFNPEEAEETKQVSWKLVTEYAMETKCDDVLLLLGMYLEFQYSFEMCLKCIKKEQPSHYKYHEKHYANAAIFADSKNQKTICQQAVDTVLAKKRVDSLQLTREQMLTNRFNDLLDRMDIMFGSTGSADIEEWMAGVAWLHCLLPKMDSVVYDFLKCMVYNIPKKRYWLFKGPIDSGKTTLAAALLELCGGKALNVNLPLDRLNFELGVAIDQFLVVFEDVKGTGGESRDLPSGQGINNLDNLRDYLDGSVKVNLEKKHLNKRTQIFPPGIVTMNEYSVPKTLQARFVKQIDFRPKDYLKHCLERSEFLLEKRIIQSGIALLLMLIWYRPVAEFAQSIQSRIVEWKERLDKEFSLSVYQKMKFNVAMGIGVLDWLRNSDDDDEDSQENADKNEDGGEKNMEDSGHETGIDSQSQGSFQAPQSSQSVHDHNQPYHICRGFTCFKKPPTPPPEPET
Assay [8] deals with T5, Bcl-2-related protein A1 (Mus musculus, UniProt Q07440).
T5 sequence (Q07440 whole entry): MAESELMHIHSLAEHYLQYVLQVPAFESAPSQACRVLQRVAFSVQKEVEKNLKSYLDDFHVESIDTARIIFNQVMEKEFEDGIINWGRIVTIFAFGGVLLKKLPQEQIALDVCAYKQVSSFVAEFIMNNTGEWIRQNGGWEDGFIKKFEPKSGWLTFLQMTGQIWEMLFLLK
Type of assay: functional.

The target of assay [9] is T6, Ubiquitin-conjugating enzyme E2 N (Homo sapiens, UniProt P61088).
T6 sequence (P61088 whole entry): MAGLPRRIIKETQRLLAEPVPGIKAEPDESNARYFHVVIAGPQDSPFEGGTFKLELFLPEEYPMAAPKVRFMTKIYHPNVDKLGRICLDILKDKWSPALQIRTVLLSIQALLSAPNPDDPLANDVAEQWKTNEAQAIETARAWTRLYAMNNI
Type of assay: functional.

Assay [10] has as its target T6, Ubiquitin-conjugating enzyme E2 N. Type of assay: functional. This is another data set of the same source.
Assay [11] is described as follows: HIV-1 AD8 envelope cell-cell fusion blockers – cherry-pick, dose response (AID 652062).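 Further: luciferase signal from cell-cell fusion driven by HIV-1 clade B AD8 Env; potency is for inhibitors of fusion seen as a drop in luminescence.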 Type of assay: functional, cell-based.
A short description of assay [12]: blockers of HIV-1 envelope-mediated cell-cell fusion – cherry-pick, dose response (AID 652057). The class given is functional, cell-based.
The nature of assay [13]: blockers of HIV-1 ZM109 envelope-driven cell-cell fusion – HeLa effector, CEM target cells, luciferase, cherry-pick, dose response (AID 652058).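 Further: luciferase signal from HIV-1 Env mediated cell-cell fusion of effector and target cells.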 The class given is functional, cell-based.

Broadly, the IC50 is the concentration needed to halve the response being measured. On to `O=C1OC(/C(=C\Nc2cc(Cl)ccc2O)[N+](=O)[O-])c2ccccc21` (configuration not stated), for which the IC50 in [1] is 48.8 µM (active); in assay [2], 11.7 µM (active).

Take `CCCNC(=O)/C(=C/c1cn(S(=O)(=O)N(C)C)c2ccccc12)NC(=O)c1ccc(OC)cc1`: the IC50 in assay [3] is 6.75 µM (active); in assay [4], 4.86 µM (active). The EC50 in assay [5] is 4.01 µM (active).

Consider `O=C1CCC(=O)N1c1nc2n(n1)C(c1ccccc1)C=C(c1ccc(Br)cc1)N2` (configuration not stated), for which, in [1], the IC50 is 69.7 µM (active).

The AC50 is the concentration giving half of the maximal activity seen. With `CCN(CC)CCNC(=O)c1ccc(NC(=O)c2cccc(S(=O)(=O)N3c4ccccc4CC3C)c2)cc1` (configuration not stated), the AC50 in [6] is 10.5 µM (active).

On to `CCN(CC)S(=O)(=O)c1ccc(C(=O)Oc2coc(CSc3nc(C)cc(C)n3)cc2=O)cc1`, for which, in assay [7], the IC50 was 40.4 µM (active).

Consider `O=C(CSc1nc2ccsc2c(=O)n1Cc1ccccc1)NCc1ccco1`, for which the values for the IC50 in assay [8], in [9] and in [10] were > 20 µM (inactive), > 20 µM (inactive) and 18.1 µM (active), respectively.

Take `Cc1ccc(S(=O)(=O)N(C)C[C@@H]2Oc3ncc(/C=C/c4ccccc4)cc3C(=O)N([C@H](C)CO)C[C@@H]2C)cc1`: the AC50 in assay [11] was 3.55 µM (active); in assay [12], 0.577 µM (active); in assay [13] it was 2.57 µM (active).

Turning to `O=C(C[C@H]1C=C[C@@H](NC(=O)Nc2ccccc2F)[C@@H](CO)O1)NCc1ccc(Cl)cc1`, the values for the AC50 in [11] and in assay [12] were 9.13 µM (active) and 3.07 µM (active), respectively.

Regarding `Cc1nc(NS(=O)(=O)c2ccccc2)sc1C(=O)N/N=C/c1ccccc1`, the IC50 in assay [1] was 50.1 µM (active).
